Measurements: publication PMC5638581 (Molecular Biology of the Cell, 2017)

Columns and labels:
[1] = biological target: TorsinA (TorA) with LAP1 luminal domain (LAP1^LD) (Homo sapiens, UniProt O14656); details: 3 μM TorA, 3 μM LAP1 LD, 2 mM ATP, 37 °C, 1 h
[2] = biological target: TorsinA (TorA) with LULL1 luminal domain (LULL1^LD) (Homo sapiens, UniProt O14656); details: 3 μM TorA, 3 μM LULL1 LD, 2 mM ATP, 37 °C, 1 h
[3] = biological target: the molecule itself; assay: SEC + other: negative stain electron microscopy

Chain of TorsinA (TorA) with LAP1 luminal domain (LAP1^LD) (Q5JTV8 356-583 partner, one chain of several): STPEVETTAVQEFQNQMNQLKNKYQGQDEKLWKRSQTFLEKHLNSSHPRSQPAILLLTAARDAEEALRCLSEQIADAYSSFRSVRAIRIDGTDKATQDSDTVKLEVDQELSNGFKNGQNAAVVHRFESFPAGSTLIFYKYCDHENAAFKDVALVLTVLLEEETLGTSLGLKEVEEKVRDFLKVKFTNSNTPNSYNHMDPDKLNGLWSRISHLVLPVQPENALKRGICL
Chain of TorsinA (TorA) with LULL1 luminal domain (LULL1^LD) (Q8NFQ8 236-470 partner, one chain of several): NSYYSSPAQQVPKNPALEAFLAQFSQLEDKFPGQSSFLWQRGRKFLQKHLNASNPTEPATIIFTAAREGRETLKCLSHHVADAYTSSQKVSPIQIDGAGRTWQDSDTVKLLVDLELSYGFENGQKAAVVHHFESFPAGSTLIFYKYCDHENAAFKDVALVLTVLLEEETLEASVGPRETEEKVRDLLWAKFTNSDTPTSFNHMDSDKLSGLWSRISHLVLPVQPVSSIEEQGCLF

Molecule: Nc1ncnc2c1ncn2[C@@H]1O[C@H](COP(=O)(O)OP(=O)(O)OP(=O)(O)O)[C@@H](O)[C@H]1O [ATP]
- malachite green phosphate release (ATPase) [1]: ATPase activity was measured in the absence and presence of LAP1^LD and LULL1^LD
- malachite green phosphate release (ATPase) [2]: ATPase activity was measured in the absence and presence of LAP1^LD and LULL1^LD

B1: TorsinA wild type, C-terminally FLAG-tagged, full length (enzyme, human, UniProt O14656 21-332, looked up)
chain: VEPISLGLALAGVLTGYIYPRLYCLFAECCGQKRSLSREALQKDLDDNLFGQHLAKKIILNAVFGFINNPKPKKPLTLSLHGWTGTGKNFVSKIIAENIYEGGLNSDYVHLFVATLHFPHASNITLYKDQLQLWIRGNVSACARSIFIFDEMDKMHAGLIDAIKPFLDYYDLVDGVSYQKAMFIFLSNAGAERITDVALDFWRSGKQREDIKLKDIEHALSVSVFNNKNSGFWHSSLIDRNLIDYFVPFLPLEYKHLKMCIRVEMQSRGYEIDEDIVSRVAEEMTFFPKEERVFSDKGCKTVFTKLDYYYDD
- stoichiometry N [3]: ~6
